Entries after “also recorded” stand apart in the source; their conditions may differ. One block for each molecule: values may come before it.
Assays:
[1] = Content of BBE compounds in rat tissues after repeated peroral oleogel administration; details: for Content in heart, liver, kidney, brain tissues: oleogel half dose daily 7 days, 24 h after last administration, level of quantification 50 ng/g
[2] = Pozharitskaya study: betulin in blood plasma after endotracheal administration; format: in vivo, rat; details: cross-study comparison
[3] = design: method as in PMID 27155877; details: endotracheal route; nanoparticles 25.2 mg/kg; cited from earlier work
[4] = Oxidative stability (Oxipres, high-pressure oxygen bomb method); format: physicochemical; details: antioxidants 0.33%
Experimental: Due to their high oil content, oleogels are characterized by instability in an oxygen environment, so at the beginning of the study, an oxidative stability test of the oleogel was performed, which was compared with a pure sunflower oil sample and an oil sample containing TBHQ (tertiary butylhydroquinone).
To determine the oxidative stability, the oleogel was compared with a sunflower oil alone (blank sample) and a sample of sunflower oil with the addition of TBHQ (tertiary butylhydroquinone), which is widely used as an effective food antioxidant. TBHQ was added to the oil at a concentration equivalent to the concentration of polyphenols in the oleogel—0.33% (determined in previous studies).
An Oxipres ML 3,047,312 machine (Mikrolab Aarhus, Aarhus, Denmark) was used to determine oxidative stability. This equipment is a modification of the high-pressure oxygen bomb method (by standard ASTM D942), the principle of which is to oxidize substrates with oxygen. Enough sample was weighed into glass containers to contain 5 g of substrate. […] The protection factor (PF) is calculated according to the formula PF = […], where IPx is the induction period for the sample with antioxidant additives, hours; IPk is the induction period for the sample without antioxidant additives or the “blank sample”, hours. Using that formula, the oxidative stability was determined and compared among samples.

[5] = male, Wistar, rat, in vivo
[6] = oral in olive oil, 200 mg/kg, mice; cited from earlier work
[7] = Betulin, lupeol and betulinic acid in rat blood plasma after peroral administration of BBE dispersed systems (LC/MS/MS)
[8] = oleogel half dose daily for 7 days

Content in heart, liver, kidney, brain tissues [1]: not detected; also recorded: not found
Structure (SMILES): C=C(C)[C@@H]1CC[C@]2(C(=O)O)CC[C@]3(C)[C@H](CC[C@@H]4[C@@]5(C)CC[C@H](O)C(C)(C)[C@@H]5CC[C@]43C)[C@@H]12 [betulinic acid]

Structure (SMILES): C=C(C)[C@@H]1CC[C@]2(CO)CC[C@]3(C)[C@H](CC[C@@H]4[C@@]5(C)CC[C@H](O)C(C)(C)[C@@H]5CC[C@]43C)[C@@H]12 [betulin powder]
Plasma level, times higher than aqueous suspension of BBE powder in this study [2]: ~1000 times
Betulin in blood plasma [3]: 6.9 µg/mL

Induction period ([4]; oxygen 8–8.5 bar, 120 °C): 3.5 h
Protection factor ([4]; vs blank sunflower oil): 2.7
Structure (SMILES): CC(C)(C)c1cc(O)ccc1O [TBHQ in oil, tertiary butylhydroquinone]

Structure (SMILES): C=C(C)[C@@H]1CC[C@]2(C)CC[C@]3(C)[C@H](CC[C@@H]4[C@@]5(C)CC[C@H](O)C(C)(C)[C@@H]5CC[C@]43C)[C@@H]12 [lupeol]
Lupeol content in heart [5]: about 250 ng/g tissue
Lupeol concentration in blood plasma [6]: 6 ng/µL
Lupeol content in brain [1, 8]: not found
Lupeol content in kidneys [1, 8]: about 250 ng/g tissue
Lupeol content in liver [1, 8]: about 21 ng/g tissue
Lupeol bioavailability from the oleogel, times better than betulin bioavailability ([7]; considering the lower dose of lupeol): 20 times
Lupeol exposure, times higher than betulin exposure ([7]; peroral BBE systems): about 3 times

Structure (SMILES): C=C(C)[C@@H]1CC[C@]2(CO)CC[C@]3(C)[C@H](CC[C@@H]4[C@@]5(C)CC[C@H](O)C(C)(C)[C@@H]5CC[C@]43C)[C@@H]12 [betulin]
Content in heart, liver, kidney, brain tissues [1]: not detected; also recorded: not found

— article PMC10780823, “Innovative Approach to Enhance Bioavailability of Birch Bark Extracts: Novel Method of Oleogel Development Contrasted with Other Dispersed Systems” (Plants, 2024)
